Patent US6844355B2 (Academic Pharmaceuticals, Inc., priority 1999, dated 2005)
Entries after “also recorded” stand apart in the source; their conditions may differ.

Key:
KVLQT1+KCNE1 (IKs) = target: T1, KVLQT1+KCNE1 (IKs) (Homo sapiens, UniProt P51787); test: KVLQT1+KCNE1 (IKs) currents in Xenopus oocytes; assay type: cell-based
T1 construct: expressed in transfected cells; host or cells: Xenopus laevis oocytes (co-injection of hminK and KVLQT1 cRNA)
Procedure: Wild type human minK (KCNE1) and KVLQT1 cDNA are isolated from human cardiac and pancreas cDNA libraries and cloned into the pSP64 poly (A) vector (Promega). For transcription in oocytes, the minK is subcloned from genomic DNA using the MKEL and MKER primers. The final minK expression construct contains cDNA inserted in the plasmid vector (PROMEGA). For the injection into Xenopus oocytes, cRNA is prepared using the mCAP RNA capping kit (Stratagene) following linearization of the expression construct by restriction digestion with EcoRI for run-off transcription.
In-vitro transcription is performed with SP6 RNA polymerize using the mMessage Machine kit (Ambion). The final capped-cRNA product is resuspended in 0.1 mM KCL and stored at −80° C. The concentration of synthesized RNA is estimated by separating the denatured cRNA on a 1.5% agarose gel together with the 0.24-9.5 kb RNA ladder (Gibco-BRL).
KVLQT1+KCNE1 currents are recorded with a solution containing in mmol-L: NaCl-96; KCl-2 CaCl2-1.8; MgCl2-1.0; and HEPES 5, pH 7.4. The following testing protocols are used: a) I-V plot, oocytes are held at −80 mV, then step pulses from −60 mV to +40 mV in 20 mV increments of 18 seconds are applied returning to −40 mV; b) Single pulses, the same protocol is applied for control current and after drug perfusion for current measurement. From a holding potential of −80 mV to a test potential of +40 mV during 18 seconds a pulse is applied. […] The cell is either left at a resting potential of −80 mV or stimulated from a holding potential of −80 mV to a test potential of +40 mV during 1000 ms in a frequency range of 0.3 Hz.
Isolation of oocytes and cRNA injection. Xenopus laevis frogs are anesthetized by immersion in 0.2% Trocaine for 15-30 min. A small incision is made in the lateral ventral quadrant of the abdomen and a small piece of ovarian tissue is removed. The incision is then sutured at both the muscle and the cutaneous layers with fine silk thread and the animal is allowed to recover. The ovarian lobe is digested with 10 mg/ml type 1A collagenase (Sigma) in calcium-free solution for 30-60 min to remove the follicle layer. Stage V and VI oocytes are injected with 40 nl of a solution containing 10 to 50 ng/μl cRNA of either SCN5A, HERG, or hminK and KVLQT1, and then incubated at 19° C. in a modified bath solution for 2-8 days.

ileum = test: Ileum strip contractility, isometric muscle contractions; set-up: species or system Guinea pig; details: for Bursts / Slow waves / Spikes: mean ± standard deviation; for effect on ileum strip contractility, in words: Table 2 / FIG. 9
Procedure: Rat Ileum Studies and Characterization of Chiral Separation Products. Guinea pig ileum is harvested and placed in warm (37° C.) Krebs […] buffer and oxygenated (95% O2 and 5% CO2). Segments approximately 4.5 cm long are placed on a transducer (Gilson Instruments) and a preload of 1 gm is placed on the tissue. The tissue is then placed in a chamber and bathed in Tyrode's solution (37.5° C.) and oxygenated (95% O2 and 5% CO2). Muscle contractions are measured isometrically. After stable contractions are obtained, a study compound is added to the tissue bath and recordings are made until a new steady state of contraction is obtained. Following a washout period, a new steady state of contraction is recorded and then the procedure repeated with a second dose of the drug being evaluated. Changes in contraction magnitude are recorded as the percentage change from baseline. This procedure is a modification of the technique described by Van Neuten and associates (Van Neuten et al., Life Sci. 1978 28:453-458). […] The preparation permits the identification of slow waves of contraction, bursts of contraction of the smooth muscle and spikes of marked cross-sectional contraction. Each of the measures can be used as a measurement of contractile effect of an agent.

T1 sequence (P51787 whole entry): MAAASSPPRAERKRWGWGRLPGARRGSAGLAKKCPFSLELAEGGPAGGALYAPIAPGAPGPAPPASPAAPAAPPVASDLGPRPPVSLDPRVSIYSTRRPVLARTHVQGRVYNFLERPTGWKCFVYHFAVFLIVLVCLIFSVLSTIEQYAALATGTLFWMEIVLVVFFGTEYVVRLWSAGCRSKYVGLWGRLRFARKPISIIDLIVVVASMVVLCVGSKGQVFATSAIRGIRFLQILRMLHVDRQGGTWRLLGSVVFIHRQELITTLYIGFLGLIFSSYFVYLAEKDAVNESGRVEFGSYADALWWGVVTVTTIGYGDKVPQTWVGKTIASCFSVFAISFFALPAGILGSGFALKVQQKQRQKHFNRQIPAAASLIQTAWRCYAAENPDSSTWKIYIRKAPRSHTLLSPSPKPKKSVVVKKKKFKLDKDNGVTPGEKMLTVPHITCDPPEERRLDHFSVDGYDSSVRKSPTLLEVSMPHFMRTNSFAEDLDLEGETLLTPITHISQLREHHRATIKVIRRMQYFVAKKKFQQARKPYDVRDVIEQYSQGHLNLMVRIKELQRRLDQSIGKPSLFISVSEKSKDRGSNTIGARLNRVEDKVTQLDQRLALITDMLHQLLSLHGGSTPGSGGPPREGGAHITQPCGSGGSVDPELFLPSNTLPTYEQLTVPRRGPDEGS

reduction of IKs currents (KVLQT1+KCNE1 (IKs); concentrations from 10^−6 to 10^−4, respectively) | SMILES | effect on IKs current, in words (KVLQT1+KCNE1 (IKs); 100 μM) | % of block of IKs (KVLQT1+KCNE1 (IKs); 10^−4 Molar) | % of block of IKs (KVLQT1+KCNE1 (IKs); 10^−5 Molar) | % of block of IKs (KVLQT1+KCNE1 (IKs); 10^−6 Molar) | Bursts (ileum; 10^−5 M) | Slow waves (ileum; 10^−5 M) | Spikes (ileum; 10^−5 M) | Bursts (ileum; 10^−6 M) | Slow waves (ileum; 10^−6 M) | Spikes (ileum; 10^−6 M) | Bursts (ileum; 10^−7 M) | Slow waves (ileum; 10^−7 M) | Spikes (ileum; 10^−7 M) | effect on rat illeal strip tracings, in words (ileum; 10^−7 and 10^−6 M, FIG. 9 legend) | effect on ileum strip contractility, in words (ileum)
 | CCCCc1oc2ccccc2c1C(=O)c1cc(I)c(OCCN(CC)CC)c(I)c1 [AMIODARONE, amiodarone] | inhibits the current flow across the IKs channel | 47 ± 1% | 30 ± 3% | 15 ± 1% |  |  |  |  |  |  |  |  |  |  | 
14 to 52% | C=C[C@H]1C[N@@]2CC[C@H]1C[C@@H]2[C@@H](O)c1ccnc2ccc(OC)cc12 [Quinidine, quinidine] |  | 52 ± 5% | 21 ± 7% | 14 ± 5% | 14 ± 4 | 6 ± 1 | 15 ± 1 | 7.7 ± 1.2 | 3.0 ± 0.5 | 13 ± 2 | 8 ± 2 | 3.3 ± 0.6 | 11 ± 1 | reduces the magnitude of contraction | augmentation of slow wave contractility, burst contractility and spike contractility; also recorded: increases slow waves
 | C=C[C@H]1C[N@@]2CC[C@H]1C[C@H]2[C@H](O)c1ccnc2ccc(OC)cc12 [quinine] |  |  |  |  |  |  |  |  |  |  |  |  |  |  | no effect
